The assay addresses T1, gastrin (CCK2) receptors (Rattus norvegicus, UniProt P30553).
T1 construct: The stomach was excised and flushed with ca. 1 ml of unbuffered physiological saline solution; from tissue; host or cells: isolated whole stomach of immature rats (ca. 21 days old)
T1 sequence (P30553 1-452): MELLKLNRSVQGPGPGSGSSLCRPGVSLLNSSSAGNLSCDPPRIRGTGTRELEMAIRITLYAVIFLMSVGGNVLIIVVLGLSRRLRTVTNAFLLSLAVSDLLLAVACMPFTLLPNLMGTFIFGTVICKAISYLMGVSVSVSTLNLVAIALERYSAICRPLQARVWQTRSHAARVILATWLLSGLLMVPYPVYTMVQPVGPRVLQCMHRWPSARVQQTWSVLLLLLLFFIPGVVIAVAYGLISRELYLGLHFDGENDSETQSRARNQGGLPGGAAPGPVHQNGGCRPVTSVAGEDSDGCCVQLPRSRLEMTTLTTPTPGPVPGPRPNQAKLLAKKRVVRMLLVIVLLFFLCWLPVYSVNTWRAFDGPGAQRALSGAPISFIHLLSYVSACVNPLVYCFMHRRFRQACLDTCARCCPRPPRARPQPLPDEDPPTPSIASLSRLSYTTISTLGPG
Briefly: gastrin (CCK2) antagonist activity in an immature rat stomach assay. The note with it: pentagastrin dose-response curves, acid secretion, read-out: pKB rat stomach (converted). As to the method: The compounds of the examples were tested for gastrin (CCK2) antagonist activity in an immature rat stomach assay. The procedure was as follows:
The oesophagus of immature rats (33-50 g, ca. 21 days old) was ligated at the level of the cardiac sphincter and the duodenal sphincter was cannulated. The stomach was excised and flushed with ca. 1 ml of unbuffered physiological saline solution. The fundus was punctured and cannulated. A further 4-5 ml of unbuffered solution was flushed through the stomach to ensure the preparation was not leaking. […] The stomach was continuously perfused at a rate of 1 ml min^−1 with unbuffered solution gassed with 100% O2 with the perfusate passing over an internally referenced pH-electrode fixed 12 cm above the stomach.
After 120 min of stabilisation the drugs were added directly to the serosal solution in the organ bath and after a further 60 min cumulative pentagastrin dose-response curves were started.
With `COC(=O)c1coc(-c2cccc(NC(=O)CN3N=C(C4CCCCC4)c4ccccc4N(CC(=O)C(C)(C)C)C3=O)c2)n1` [Example 140, 2-(3-{2-[5-Cyclohexyl-1-(3,3-dimethyl-2-oxo-butyl)-2-oxo-1,2-dihydro-3H-1,3,4-benzotriazepin-3-yl]-acetylamino}-phenyl)-oxazole-4-carboxylic acid methyl ester], the Kb is 1.12 nM.

Regarding `CC1CCC(C2=NN(CC(=O)Nc3cccc(CC(=O)O)c3)C(=O)N(CC(=O)C(C)(C)C)c3ccccc32)CC1` (centres unmarked) [Example 103, (3-{2-[1-(3,3-Dimethyl-2-oxo-butyl)-5-(4-methyl-cyclohexyl)-2-oxo-1,2-dihydro-3H-1,3,4-benzotriazepin-3-yl]-acetylamino}-phenyl)-acetic acid], the Kb was 3.98 nM.

Regarding `CC(C)(C)C(=O)CN1C(=O)N(CC(=O)Nc2cc(C(=O)O)cc(C(=O)O)c2)N=C(C2CCCCC2)c2ccccc21` [Example 39, 5-{2-[5-Cyclohexyl-1-(3,3-dimethyl-2-oxo-butyl)-2-oxo-1,2-dihydro-3H-1,3,4-benzotriazepin-3-yl]-acetylamino}-isophthalic acid], the Kb is 7.59 nM.

Regarding `O=C(CN1N=C(C2CCCCC2)c2ccccc2N(CC(=O)C2CCCCC2)C1=O)Nc1cccc(C(=O)O)c1` [Example 79, 3-{2-[5-Cyclohexyl-1-(2-cyclohexyl-2-oxo-ethyl)-2-oxo-1,2-dihydro-3H-1,3,4-benzotriazepin-3-yl]-acetylamino}-benzoic acid], the Kb is 2.51 nM.

On to `Cc1cccc2c1C(C1CCCCC1)=NN(CC(=O)Nc1cccc(C(=O)O)c1)C(=O)N2CC(=O)C(C)(C)C` [Example 114, 3-{2-[5-Cyclohexyl-1-(3,3-dimethyl-2-oxo-butyl)-6-methyl-2-oxo-1,2-dihydro-3H-1,3,4-benzotriazepin-3-yl]-acetylamino}-benzoic acid], for which the Kb was 35.5 nM.

`CC(C)(C)C(=O)CN1C(=O)N(CC(=O)Nc2cccc(-c3ccc(C(=O)O)o3)c2)N=C(C2CCCCC2)c2ccccc21` [Example 145, 5-(3-{2-[5-Cyclohexyl-1-(3,3-dimethyl-2-oxo-butyl)-2-oxo-1,2-dihydro-3H-1,3,4-benzotriazepin-3-yl]-acetylamino}-phenyl)-furan-2-carboxylic acid]: the Kb was 3.39 nM.

On to `CC(C)(C)C(=O)CN1C(=O)N(CC(=O)Nc2cccc(C(=O)NS(C)(=O)=O)c2)N=C(C2CCCCC2)c2ccccc21` [Example 40], for which the Kb is 22.9 nM.

Turning to `O=C(O)Cn1ccc2ccc(NC(=O)CN3N=C(C4CCCCC4)c4ccccc4N(CC(=O)C4CCCC4)C3=O)cc21` [Example 126, (6-{2-[5-Cyclohexyl-1-(2-cyclopentyl-2-oxo-ethyl)-2-oxo-1,2-dihydro-3H-1,3,4-benzotriazepin-3-yl]-acetylamino}-indol-1-yl)-acetic acid], the Kb is 0.0575 nM.

Consider `CC(C)(C)C(=O)CN1C(=O)N(CC(=O)Nc2cccc(Cc3nnn[nH]3)c2)N=C(C2CCCCC2)c2ccccc21` [Example 67, 2-[5-Cyclohexyl-1-(3,3-dimethyl-2-oxo-butyl)-2-oxo-1,2-dihydro-3H-1,3,4-benzotriazepin-3-yl]-N-[3-(1H-tetrazol-5-ylmethyl)-phenyl]-acetamide], for which the Kb is 77.6 nM.

With `O=C(O)Cc1cccc(NC(=O)CN2N=C(c3ccccn3)c3ccccc3N(CC(=O)C3CCCC3)C2=O)c1` [Example 81], the Kb is 72.4 nM.

For the compound `CC(C)(C)C(=O)CN1C(=O)N(CC(=O)Nc2cccc(CO)n2)N=C(C2CCCCC2)c2ccccc21` [Example 106, 2-[5-Cyclohexyl-1-(3,3-dimethyl-2-oxo-butyl)-2-oxo-1,2-dihydro-3H-1,3,4-benzotriazepin-3-yl]-N-(6-hydroxymethyl-pyridin-2-yl)-acetamide], the Kb is 129 nM.

As for `CC(C)(C)OC(=O)CN1C(=O)N(CC(=O)Nc2cccc(C(=O)O)c2)N=C(C2CCCCC2)c2ccccc21` [Example 95, 3-[2-(1-tert-Butoxycarbonylmethyl-5-cyclohexyl-2-oxo-1,2-dihydro-3H-1,3,4-benzotriazepin-3-yl)-acetylamino]-benzoic acid], the Kb was 3.98 nM.

For the compound `O=C(CN1N=C(C2CCCCC2)c2ccccc2N(CC(=O)C2CCCC2)C1=O)Nc1cccc(-c2nc(C(=O)O)co2)c1` [Example 148, 2-(3-{2-[5-Cyclohexyl-1-(2-cyclopentyl-2-oxo-ethyl)-2-oxo-1,2-dihydro-3H-1,3,4-benzotriazepin-3-yl]-acetylamino}-phenyl)-oxazole-4-carboxylic acid], the Kb was 3.89 nM.

Turning to `CC(C)(C)C(=O)CN1C(=O)N(CC(=O)Nc2cccc(NC(=O)CCC(=O)O)c2)N=C(C2CCCCC2)c2ccccc21` [Example 66, N-(3-{2-[5-Cyclohexyl-1-(3,3-dimethyl-2-oxo-butyl)-2-oxo-1,2-dihydro-3H-1,3,4-benzotriazepin-3-yl]-acetylamino}-phenyl)-succinamic acid], the Kb is 74.1 nM.

On to `O=C(O)Cc1cccc(NC(=O)CN2N=C(C3CCCCC3)c3ccccc3N(CC(=O)C3CC3)C2=O)c1` [Example 119], for which the Kb is 24.5 nM.

With `CC(C)(C)C(=O)CN1C(=O)N(CC(=O)Nc2cccc(S(=O)(=O)CC(=O)O)c2)N=C(C2CCCCC2)c2ccccc21` [Example 50], the Kb is 11 nM.

Take `CC(C)(C)C(=O)CN1C(=O)N(CC(=O)Nc2cccc(CCC(=O)O)c2)N=C(C2CCCCC2)c2ccccc21` [Example 61, 3-(3-{2-[5-Cyclohexyl-1-(3,3-dimethyl-2-oxo-butyl)-2-oxo-1,2-dihydro-3H-1,3,4-benzotriazepin-3-yl]-acetylamino}-phenyl)-propionic acid]: the Kb was 4.47 nM.

For the compound `O=C(CN1N=C(C2CCCCC2)c2ccccc2N(CC(=O)C23CC4CC(CC(C4)C2)C3)C1=O)Nc1cccc(C(=O)O)c1` [Example 17, 3-{2-[1-(2-Adamantan-1-yl-2-oxo-ethyl)-5-cyclohexyl-2-oxo-1,2-dihydro-3H-1,3,4-benzotriazepin-3-yl]-acetylamino}-benzoic acid], the Kb was 115 nM.

Regarding `O=C(CN1N=C(C2CCCCC2)c2ccccc2N(CC(=O)C2CCCCC2)C1=O)Nc1cccc(-c2nc(=O)o[nH]2)c1` [Example 111, 2-[5-Cyclohexyl-1-(2-cyclohexyl-2-oxo-ethyl)-2-oxo-1,2-dihydro-3H-1,3,4-benzotriazepin-3-yl]-N-[3-(5-oxo-2,5-dihydro-[1,2,4]oxadiazol-3-yl)-phenyl]-acetamide], the Kb is 2.19 nM.

In the case of `CC(C)(C)C(=O)CN1C(=O)N(CC(=O)Nc2cccc(-c3ccccc3C(=O)O)c2)N=C(C2CCCCC2)c2ccccc21` [Example 154, 3′-{2-[5-Cyclohexyl-1-(3,3-dimethyl-2-oxo-butyl)-2-oxo-1,2-dihydro-3H-1,3,4-benzotriazepin-3-yl]-acetylamino}-biphenyl-2-carboxylic acid], the Kb was 3.24 nM.

Regarding `CNc1ccccc1NC(=O)CN1N=C(C2CCCCC2)c2ccccc2N(CC(=O)C(C)(C)C)C1=O` [Example 101, 2-[5-Cyclohexyl-1-(3,3-dimethyl-2-oxo-butyl)-2-oxo-1,2-dihydro-3H-1,3,4-benzotriazepin-3-yl]-N-(2-methylamino-phenyl)-acetamide], the Kb is 129 nM.

With `CCOCCNc1cccc(NC(=O)CN2N=C(C3CCCCC3)c3ccccc3N(CC(=O)C(C)(C)C)C2=O)c1` [Example 42, 2-[5-Cyclohexyl-1-(3,3-dimethyl-2-oxo-butyl)-2-oxo-1,2-dihydro-3H-1,3,4-benzotriazepin-3-yl]-N-[3-(2-ethoxy-ethylamino)-phenyl)-acetamide], the Kb was 105 nM.

Take `CC(C)(C)C(=O)CN1C(=O)N(CC(=O)Nc2cccc(-n3ccnc3)c2)N=C(C2CCCCC2)c2ccccc21` [Example 89, 2-[5-Cyclohexyl-1-(3,3-dimethyl-2-oxo-butyl)-2-oxo-1,2-dihydro-3H-1,3,4-benzotriazepin-3-yl]-N-[3-(1H-imidazol-1-yl)-phenyl]-acetamide]: the Kb was 871 nM.

Regarding `O=C(CN1N=C(C2CCCCC2)c2ccccc2N(CC(=O)C2CCCC2)C1=O)Nc1cccc(-c2csc(C(=O)O)n2)c1` [Example 137, 4-(3-{2-[5-Cyclohexyl-1-(2-cyclopentyl-2-oxo-ethyl)-2-oxo-1,2-dihydro-3H-1,3,4-benzotriazepin-3-yl]-acetylamino}-phenyl)-thiazole-2-carboxylic acid], the Kb was 2.88 nM.

For `CNc1cccc(NC(=O)CN2N=C(c3ccccn3)c3ccccc3N(CC(=O)N3CCCC3)C2=O)c1` [Example 6], the Kb is 1050 nM.

As to `CNc1cc(NC(=O)CN2N=C(C3CCCCC3)c3ccccc3N(CC(=O)C(C)(C)C)C2=O)cc(C(=O)O)c1` [Example 73, 3-{2-[5-Cyclohexyl-1-(3,3-dimethyl-2-oxo-butyl)-2-oxo-1,2-dihydro-3H-1,3,4-benzotriazepin-3-yl]-acetylamino}-5-methylamino-benzoic acid], the Kb was 67.6 nM.
